This is an account of results in article PMC8395260, “Co-Aggregation of S100A9 with DOPA and Cyclen-Based Compounds Manifested in Amyloid Fibril Thickening without Altering Rates of Self-Assembly” (International Journal of Molecular Sciences, 2021).

Each structure is given as a SMILES string. Non-standard residues stand in square brackets, D forms with d. Residues, ends and D or L forms follow the SMILES beside them. Dopa = N[C@@H](Cc1ccc(O)c(O)c1)C(=O)O

Data set [1] is described as follows: ThT incubation of individual compounds (amyloid self-assembly of the compounds). It counts as physicochemical. The following applies: 75 μM compound, PBS pH7.4, 42 °C, same period as S100A9 kinetics. Here is the method:
Figure S1. Time dependence of Thioflavin-T fluorescence changes during its incubation with S100A9 and DOPA and Cyclen-based compounds. Thioflavin-T fluorescence in arbitrary units is shown along y-axis, time in minutes – along x-axis. Increase in Thioflavin-T fluorescence in the presence of 75 μM S100A9 reflects its amyloid self-assembly and shown in brown. By contrast, there were no increase in Thioflavin-T fluorescence upon incubation with 75 μM of corresponding compounds as […]
green line, for DOPA-H-H-DOPA – by orange, DOPA-D-H – by chartreuse, H-E-Cyclen – by red and […]
assembly of these compounds under the conditions of our experiments. PBS, pH7.4 and 42 °C.
(1 picture or pasted object on this page, not shown here)

The target in data set [2] is T1, S100A9 (Homo sapiens, UniProt P06702).
T1 construct: made in house; host or cells: E. coli
T1 sequence (P06702 1-114): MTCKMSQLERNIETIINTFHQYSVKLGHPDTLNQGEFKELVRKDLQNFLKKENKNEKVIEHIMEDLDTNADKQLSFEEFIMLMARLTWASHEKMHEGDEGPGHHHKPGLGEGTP
The data set is described as follows: ThT fluorescence kinetics of S100A9 amyloid formation in the presence of compounds. It is filed as biochemical. As to conditions: for k, kinetic rate constant of S100A9 amyloid formation: 75 μM S100A9, 20 µM ThT, PBS pH 7.4, 42 °C, isodesmic polymerization fit, triplicate; for k/kS100A9: 75 μM S100A9, PBS pH 7.4, 42 °C. An excerpt:
The amyloid formation of S100A9 in the absence and presence of DOPA and cyclen-based compounds was monitored by ThT fluorescence and is presented in Figure 2. The amyloid formation correlates with the increase of the ThT fluorescence, and the initial parts of the fibrillation kinetic curves were fitted by using an isodesmic polymerization model to derive the kinetic rates; this model has previously been used in kinetic analysis of S100A9 amyloid self-assembly.
Figure 2 Kinetics of S100A9 amyloid formation in the absence and presence of DOPA and cyclen-based compounds monitored by ThT fluorescence. (a) Amyloid kinetics monitored at the ratio of S100A9 to corresponding compound of 1:1 and (b) 1:10, respectively. Symbols indicating the experimental data points for S100A9 alone or with respective compounds are shown in the caption and the corresponding lines indicate the fitting with the isodesmic polymerization model. The equation for isodesmic polymerization fitting is shown in ((b) inset). 75 μM S100A9, PBS, pH 7.4, and 42 °C.
ThT dye is known to bind specifically to β-sheet-containing amyloid structures and thus enables quantification of the kinetics of amyloid self-assembly. ThT assay was performed as described previously. First, 75 μM S100A9 was transferred into Nunc 96U black well plates with transparent bottoms and then 20 µM ThT was added to each well. The compounds dissolved in PBS were added to S100A9 solution with molar ratios of 1:1 and 1:10, respectively. Sample volumes were kept at 200 μL per well. The plates were immediately covered, placed into a Tecan F200 PRO plate reader, and incubated at 42 °C with 432 rpm orbital shaking every 10 min. ThT fluorescence was recorded every 10 min. Filters at 430 and 495 nm wavelengths with a 20 nm band width each were used for excitation and emission, respectively. Each sample was incubated in triplicate. ThT fluorescence intensities were normalized.

Data set [3] deals with T1, S100A9. As to the kind of experiment: Titration of S100A9 with compounds followed by intrinsic fluorescence. The following applies: intrinsic Trp 88 fluorescence, single binding site model, legend: 75 μM S100A9, PBS pH 7.4, 20 °C, method: 1 μM S100A9, 5 nM to 2.4 μM compound, 3 h room temperature, triplicates; for Kd: read-out: apparent dissociation constant Kd. Here is the method:
S100A9 was titrated by each compound of interest following the changes in intrinsic fluorescence intensity, since S100A9 has one aromatic residue: Trp 88. The fitting was performed using a single binding site model to determine the apparent dissociation constant for each compound. […] A twice larger Kd was determined only for DOPA-D-H-DOPA binding.
Figure 4 Binding of DOPA and cyclen-based compounds to native S100A9 followed by intrinsic fluorescence. (a–e) Normalized titrations of S100A9 by corresponding compounds. Each compound is indicated above corresponding figure (a–e) and their Kd in captions. Symbols indicate the experimental data points and lines the fitting with a single binding site model. 75 μM S100A9, PBS, pH 7.4, and 20 °C.
First, 1 μM S100A9 was incubated in PBS, pH 7.4, room temperature for 3 h in the absence or presence of 5 nM to 2.4 μM of the studied compounds prior to fluorescence measurements. The final volume was kept at 400 μL for all samples. The fluorescence emission spectra were recorded using a Jasco spectrofluorometer FP 6500 (Japan), setting the excitation at 296 nm and emission at 350 nm wavelengths, respectively, with a 3 nm band-width on both the excitation and emission. The measurements were performed in triplicates. Fitting of the normalized titration curves was performed by using a single site binding model.

In data set [4] the test system is S100A9 amyloid fibrils. As to the kind of experiment: AFM imaging of S100A9 fibrils, fibril height distributions. It is filed as biochemical. As to conditions: PBS pH 7.4, 42 °C; for S100A9 fibril morphology change (AFM): molar ratio 1:1; for median height of S100A9 fibrils (AFM): molar ratio 1:10, text, S100A9 alone ca. 1.6 nm. Here is the method:
In order to complement the kinetic analysis, we also monitored the S100A9 amyloid formation by AFM imaging (Figure 3). The amyloid fibrils of S100A9 alone that developed after 100 h of incubation in PBS, pH 7.4, and 42 °C were very flexible, relatively short, i.e., within 200–600 nm length, and also characterized by a narrow distribution of the heights with a median at ca. 1.6 nm in the AFM cross-sections. In the presence of all DOPA-based compounds, the fibrils of S100A9 become thicker with median heights of ca. 2.0–2.2 nm, and generally longer (Figure 3). […] At the molar ratio of S100A9 to DOPA-based compounds of 1:10, the height of fibrils became even thicker, shifting towards 2.2–2.8 nm median height and in the case of DOPA-D-H-DOPA to 3.0–3.2 nm (Figure 3), while their lengths remained about the same as at the 1:1 molar ratio.
Figure 3 AFM imaging of S100A9 fibrils in the absence and presence of DOPA and cyclen-based compounds and the analysis of fibril height distributions. (a) Representative AFM image of S100A9 fibrils incubated alone. (b,c) Distribution of fibril heights measured in AFM cross-sections. The same distribution is shown in both columns to facilitate the comparison with the following height distributions carried out in the presence of compounds. (d,g,j,m,p) Representative AFM images of S100A9 fibrils in the presence of DOPA and cyclen-based compounds at a 1:1 molar ratio of S100A9 to compound. (e,h,k,n,q) Distributions of fibril heights measured in AFM cross-sections at the S100A9 to compound molar ratio of 1:1 and (f,i,l,o,r) at molar ratio of 1:10. Image sizes are 2.5 × 2.5 μm. The compounds and molar ratios are indicated above the figures. Samples were incubated for 50 h in PBS, pH 7.4, and 42 °C. […]
S100A9 protein was expressed in E. coli and purified as described previously. Freshly dissolved S100A9 in PBS, pH 7.4 was used in all measurements. Lyophilized S100A9 was dissolved on ice in PBS buffer at pH 7.4. Then, S100A9 samples were filtered using a 0.22 µm spin membrane filter to remove any preformed aggregates. These solutions were directly subjected to experiments. To produce amyloids, S100A9 was incubated in PBS, pH 7.4, and 42 °C. The cyclic compounds (Figure 1) were dissolved in PBS at pH 7.4, and their stock solutions were kept frozen prior to measurements.
AFM imaging was performed by using a BioScope Catalyst AFM (Bruker; Phoenix, AZ, USA), operating in a peak force mode in air. The scan rate was 0.51 Hz and the resolution was 512 × 512 pixels. Bruker MSLN and SLN cantilevers were used in all measurements. Imaging was also conducted using a PicoPlus AFM (Molecular Imaging), equipped with a 100 μm scanner, operating in tapping mode in air. The resonance frequency was set in 170 to 190 kHz range, scan rate of 1 Hz, and resolution of 512 × 512 pixels. […]

As for `N[C@@H](Cc1ccc(O)c(O)c1)C(=O)N[C@@H](CC(=O)O)C(=O)N[C@@H](Cc1c[nH]cn1)C(=O)O` [DOPA-D-H] (H-[Dopa]-Asp-His-OH), the “ThT fluorescence upon incubation of compound alone (amyloid self-assembly)” value (“ThT fluorescence upon incubation” for short) in data set [1] is “flat lines close to zero”. In data set [2] (S100A9:compound 1:1), the “k, kinetic rate constant of S100A9 amyloid formation” value (shortened to “k, kinetic rate constant”) worked out at 63000 M⁻¹ s⁻¹ and the k/kS100A9 worked out at 0.95. For the same compound, in data set [2] (S100A9:compound 1:10), the “k, kinetic rate constant” value was found to be 45000 M⁻¹ s⁻¹ and the k/kS100A9 was 0.69. In addition, in data set [3], the “apparent dissociation constant Kd” value was “sub-micromolar range” and the Kd turned out to be 110 ± 40 nM. For the same compound, in data set [4], the “S100A9 fibril morphology change (AFM)” value is “tended to clump together, forming large clustered aggregates”.

Turning to `N[C@@H](Cc1ccc(O)c(O)c1)C(=O)N[C@@H](Cc1c[nH]cn1)C(=O)N[C@@H](Cc1c[nH]cn1)C(=O)N[C@@H](Cc1ccc(O)c(O)c1)C(=O)O` [DOPA-H-H-DOPA] (H-[Dopa]HH[Dopa]-OH), the “ThT fluorescence upon incubation” value in data set [1] is recorded as “flat lines close to zero”. In data set [2] (S100A9:compound 1:1), the “k, kinetic rate constant” value was found to be 77000 M⁻¹ s⁻¹ and the k/kS100A9 turned out to be 1.17. Moreover, the “k, kinetic rate constant” value in data set [2] (S100A9:compound 1:10) was 134000 M⁻¹ s⁻¹. Further, in data set [3], the “apparent dissociation constant Kd” value is “sub-micromolar range”.

As to `O=C(O)CC[C@H](NC(=O)CN1CCNCCNCCNCC1)C(=O)N[C@@H](Cc1c[nH]cn1)C(=O)O` [H-E-cyclen], in data set [1], the “ThT fluorescence upon incubation” value is recorded as “flat lines close to zero”. Also, in data set [2] (S100A9:compound 1:1), the “k, kinetic rate constant” value turned out to be 69000 M⁻¹ s⁻¹ and the k/kS100A9 stood at 1.05. Moreover, in data set [2] (S100A9:compound 1:10), the “k, kinetic rate constant” value came to 48000 M⁻¹ s⁻¹ and the k/kS100A9 worked out at 0.72. In data set [3], the “apparent dissociation constant Kd” value is on record as “sub-micromolar range” and the Kd was found to be 90 ± 50 nM. Moreover, in data set [4], the “S100A9 fibril morphology change (AFM)” value is “did not lead to thickening of amyloid fibrils” and the “median height of S100A9 fibrils (AFM)” value came out at 2.0 nm.

With `O=C(CN1CCNCCNCCNCC1)N[C@@H](Cc1ccc(O)c(O)c1)C(=O)O` [DOPA-cyclen], the “ThT fluorescence upon incubation” value in data set [1] was “flat lines close to zero”. Further, in data set [2] (S100A9:compound 1:1), the “k, kinetic rate constant” value was 62000 M⁻¹ s⁻¹ and the k/kS100A9 turned out to be 0.93. For the same compound, in data set [2] (S100A9:compound 1:10), the “k, kinetic rate constant” value was 133000 M⁻¹ s⁻¹. In data set [3], the “apparent dissociation constant Kd” value is given as “sub-micromolar range” and the Kd stood at 100 ± 40 nM.

For the compound `N[C@@H](Cc1ccc(O)c(O)c1)C(=O)N[C@@H](CC(=O)O)C(=O)N[C@@H](Cc1c[nH]cn1)C(=O)N[C@@H](Cc1ccc(O)c(O)c1)C(=O)O` [DOPA-D-H-DOPA] (H-[Dopa]DH[Dopa]-OH), the “ThT fluorescence upon incubation” value in data set [1] is “flat lines close to zero”. Besides, in data set [2] (S100A9:compound 1:1), the “k, kinetic rate constant” value came to 60000 M⁻¹ s⁻¹ and the k/kS100A9 came to 0.91. In addition, in data set [2] (S100A9:compound 1:10), the “k, kinetic rate constant” value was determined as 66000 M⁻¹ s⁻¹ and the k/kS100A9 stood at 1. In addition, the “apparent dissociation constant Kd” value in data set [3] was “sub-micromolar range”. In addition, in data set [4], the “S100A9 fibril morphology change (AFM)” value is given as “tended to clump together, forming large clustered aggregates” and the “median height of S100A9 fibrils (AFM)” value is given as 3.0–3.2 nm.
